Data: patent US10259811B2, “Tank-binding kinase inhibitor compounds” (Gilead Sciences, Inc., priority 2014, dated 2019)

Legend:
[1] = target: IKKε (Homo sapiens (Human), UniProt Q14164); experiment: TR-FRET enzymatic assay, phosphorylation of biotinylated serine/threonine peptide substrate (IKKε); assay type: biochemical; conditions: full length recombinant IKKε at 0.3 nM, 2×Km ATP (40-80 μM), 1 μM peptide, 240 minutes at 25° C.; geometric mean of minimum four determinations
Text: Biological Assay for TBK1 and IKKε:

[2] = target: TBK1 (Homo sapiens (Human), UniProt Q9UHD2); experiment: TR-FRET enzymatic assay, phosphorylation of biotinylated serine/threonine peptide substrate (TBK1); conditions: read-out: TBK1-IC50; full length recombinant TBK1, 2×Km ATP (40-80 μM), 1 μM peptide, 240 minutes at 25° C.; geometric mean of minimum four determinations
TBK1, sequence (Q9UHD2 whole entry): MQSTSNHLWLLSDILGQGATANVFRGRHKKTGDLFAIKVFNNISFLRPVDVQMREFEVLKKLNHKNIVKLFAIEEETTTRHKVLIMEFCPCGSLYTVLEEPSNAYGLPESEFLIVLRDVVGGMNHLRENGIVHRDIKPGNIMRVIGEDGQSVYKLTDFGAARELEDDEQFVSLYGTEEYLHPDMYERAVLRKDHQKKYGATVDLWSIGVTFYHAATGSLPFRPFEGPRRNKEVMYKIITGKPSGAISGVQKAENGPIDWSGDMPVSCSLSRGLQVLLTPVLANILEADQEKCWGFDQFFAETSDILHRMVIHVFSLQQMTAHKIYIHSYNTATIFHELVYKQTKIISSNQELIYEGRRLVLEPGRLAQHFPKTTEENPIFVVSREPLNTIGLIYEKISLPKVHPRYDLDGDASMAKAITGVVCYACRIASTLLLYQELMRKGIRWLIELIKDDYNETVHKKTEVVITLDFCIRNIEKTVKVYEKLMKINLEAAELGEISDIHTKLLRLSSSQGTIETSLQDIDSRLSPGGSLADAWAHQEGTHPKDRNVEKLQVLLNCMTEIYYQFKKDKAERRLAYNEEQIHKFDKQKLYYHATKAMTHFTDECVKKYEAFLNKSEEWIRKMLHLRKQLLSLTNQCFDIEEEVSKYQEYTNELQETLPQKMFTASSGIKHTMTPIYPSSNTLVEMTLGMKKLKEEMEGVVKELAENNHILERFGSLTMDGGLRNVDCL
Description: Enzymatic activity of IKKε and TBK1 was measured using a homogeneous time resolved fluorescence resonance energy transfer (TR-FRET) assay that monitors enzyme dependent phosphorylation of a biotinylated serine/threonine peptide substrate. […] TBK1 and IKKε were expressed and purified as full length recombinant proteins. Detection reagents for the assay were purchased from Cisbio. […] After an assay reaction time of 240 minutes at 25° C., reactions were terminated with EDTA.
Amount of phosphorylated peptide was determined by the addition of 125 nM streptavidin XL665 and europium cryptate labeled anti-phospho monoclonal antibody and the resulting TR-FRET signal was recorded on an Envision plate reader (Ex: 340 nm; Em: 615/665 nm; 100 μs delay and 200 μs read window). […] All IC50 values represent geometric mean values of a minimum of four determinations.

IKKε, sequence (Q14164 whole entry): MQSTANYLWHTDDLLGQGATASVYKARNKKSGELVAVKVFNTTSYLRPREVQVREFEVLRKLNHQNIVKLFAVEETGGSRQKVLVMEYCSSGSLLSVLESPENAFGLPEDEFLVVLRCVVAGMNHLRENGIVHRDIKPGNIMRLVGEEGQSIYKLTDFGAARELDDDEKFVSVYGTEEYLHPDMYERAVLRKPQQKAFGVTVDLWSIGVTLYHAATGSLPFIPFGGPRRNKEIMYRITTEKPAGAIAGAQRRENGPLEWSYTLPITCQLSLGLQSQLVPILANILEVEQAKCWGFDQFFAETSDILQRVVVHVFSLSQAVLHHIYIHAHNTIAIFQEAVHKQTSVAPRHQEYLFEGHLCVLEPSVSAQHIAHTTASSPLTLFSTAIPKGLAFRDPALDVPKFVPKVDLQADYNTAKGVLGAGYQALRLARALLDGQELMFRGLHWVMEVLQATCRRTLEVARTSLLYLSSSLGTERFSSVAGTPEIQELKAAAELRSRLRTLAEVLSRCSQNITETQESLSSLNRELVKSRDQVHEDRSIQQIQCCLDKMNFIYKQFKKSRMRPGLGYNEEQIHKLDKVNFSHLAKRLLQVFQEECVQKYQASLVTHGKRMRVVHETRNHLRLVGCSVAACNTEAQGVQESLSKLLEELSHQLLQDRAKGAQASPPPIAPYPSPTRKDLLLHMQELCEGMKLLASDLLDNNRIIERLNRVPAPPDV

Row | Compound | IC50 [1] | IC50 [2]
1 | 5-(6-(1,4-dioxaspiro[4.5]dec-7-en-8-yl)-7H-pyrrolo[2,3-d]pyrimidin-4-yl)-2-((1-(2-hydroxyacetyl)piperidin-4-yl)oxy)benzonitrile [Example 175] | 5.84 nM | 
2 | 5-(6-(4-(4-(2,2-difluoroethyl)piperazin-1-yl)phenyl)-7H-pyrrolo[2,3-d]pyrimidin-4-yl)-2-((1-(2-hydroxyacetyl)piperidin-4-yl)oxy)benzonitrile [Example 264] |  | 0.91 nM
3 | 5-(6-(4-(4-(2,2-difluoroethyl)piperazin-1-yl)phenyl)-7H-pyrrolo[2,3-d]pyrimidin-4-yl)-2-(piperidin-4-yloxy)benzonitrile [Example 265] | 58.7 nM | 16.2 nM
4 | Cc1nc(-c2ccc(OC3CCOCC3)c(C#N)c2)c2nc(-c3ccc(N4CCOCC4)cc3)[nH]c2n1 [Example 214, 5-(2-methyl-8-(4-morpholinophenyl)-9H-purin-6-yl)-2-((tetrahydro-2H-pyran-4-yl)oxy)benzonitrile] | > 1000 nM | > 1000 nM
5 | N#Cc1cc(-c2ncnc3[nH]c(-c4ccc(N5CCOCC5)c(F)c4)nc23)ccc1OC1CCN(C(=O)CO)CC1 [Example 241, 5-(8-(3-fluoro-4-morpholinophenyl)-9H-purin-6-yl)-2-((1-(2-hydroxyacetyl)piperidin-4-yl)oxy)benzonitrile] | 1.3 nM | 2.64 nM
